Measured values: ChEMBL document CHEMBL4052632 (Eur J Med Chem, 2017)

Columns and labels:
A2780 [1] = experiment: Antiproliferative activity against human A2780 cells measured after 48 hrs by MTT assay; type: functional, cell-based; settings: A2780, 48 h
[2] = biological target: Cyclin-dependent kinase 1/cyclin B1 (Homo sapiens) (UniProt P06493+P14635); experiment: Inhibition of recombinant human CDK1/CyclinB using Ulight-CFFKNIVTPRTPPPSQGK-amide as substrate at 100 uM after 15 mins in presence of ATP relative to control; type: protein-complex assay
[3] = biological target: Serine/threonine-protein kinase Chk1 (Homo sapiens) (UniProt O14757); experiment: Inhibition of recombinant human CHK1 using CREBtide as substrate at 100 uM after 30 mins in presence of ATP relative to control
[4] = biological target: Dual specificity mitogen-activated protein kinase kinase 1 (Homo sapiens) (UniProt Q02750); experiment: Inhibition of recombinant human MEK1 using inactivated ERK2 as substrate at 100 uM after 60 mins in presence of ATP relative to control
[5] = biological target: Mitogen-activated protein kinase 12 (Homo sapiens) (UniProt P53778); experiment: Inhibition of full length recombinant human SAPK3 at 100 uM in presence of ATP relative to control
[6] = biological target: Vascular endothelial growth factor receptor 1 (Homo sapiens) (UniProt P17948); experiment: Inhibition of VEGFR-1 (unknown origin) using poly (Glu, Tyr) 4:1 as substrate at 100 uM after 1 hr by ELISA relative to control
[7] = biological target: Mast/stem cell growth factor receptor Kit (Homo sapiens) (UniProt P10721); experiment: Inhibition of c-kit (unknown origin) using poly (Glu, Tyr) 4:1 as substrate at 100 uM after 1 hr by ELISA relative to control
[8] = biological target: Epidermal growth factor receptor (Homo sapiens) (UniProt P00533); experiment: Inhibition of EGFR (unknown origin) using poly (Glu, Tyr) 4:1 as substrate at 100 uM after 1 hr by ELISA relative to control
[9] = biological target: Ephrin type-A receptor 2 (Homo sapiens) (UniProt P29317); experiment: Inhibition of EPH-A2 (unknown origin) using poly (Glu, Tyr) 4:1 as substrate at 100 uM after 1 hr by ELISA relative to control
[10] = biological target: Proto-oncogene tyrosine-protein kinase Src (Homo sapiens) (UniProt P12931); experiment: Inhibition of c-Src (unknown origin) using poly (Glu, Tyr) 4:1 as substrate at 100 uM after 1 hr by ELISA relative to control
A2780 [11] = experiment: Induction of apoptosis in human A2780 cells after 24 hrs by annexin V/propidium iodide staining based flow cytometry; type: functional, cell-based
[12] = Toxicity in nude BALB/c mouse xenografted with human A2780 cells assessed as body weight loss at 50 mg/kg, ip administered once every 2 days for 14 consecutive days relative to control; type: organism-based; settings: in vivo, 48 h

Sequence of Vascular endothelial growth factor receptor 1 (Homo sapiens) (P17948 whole entry): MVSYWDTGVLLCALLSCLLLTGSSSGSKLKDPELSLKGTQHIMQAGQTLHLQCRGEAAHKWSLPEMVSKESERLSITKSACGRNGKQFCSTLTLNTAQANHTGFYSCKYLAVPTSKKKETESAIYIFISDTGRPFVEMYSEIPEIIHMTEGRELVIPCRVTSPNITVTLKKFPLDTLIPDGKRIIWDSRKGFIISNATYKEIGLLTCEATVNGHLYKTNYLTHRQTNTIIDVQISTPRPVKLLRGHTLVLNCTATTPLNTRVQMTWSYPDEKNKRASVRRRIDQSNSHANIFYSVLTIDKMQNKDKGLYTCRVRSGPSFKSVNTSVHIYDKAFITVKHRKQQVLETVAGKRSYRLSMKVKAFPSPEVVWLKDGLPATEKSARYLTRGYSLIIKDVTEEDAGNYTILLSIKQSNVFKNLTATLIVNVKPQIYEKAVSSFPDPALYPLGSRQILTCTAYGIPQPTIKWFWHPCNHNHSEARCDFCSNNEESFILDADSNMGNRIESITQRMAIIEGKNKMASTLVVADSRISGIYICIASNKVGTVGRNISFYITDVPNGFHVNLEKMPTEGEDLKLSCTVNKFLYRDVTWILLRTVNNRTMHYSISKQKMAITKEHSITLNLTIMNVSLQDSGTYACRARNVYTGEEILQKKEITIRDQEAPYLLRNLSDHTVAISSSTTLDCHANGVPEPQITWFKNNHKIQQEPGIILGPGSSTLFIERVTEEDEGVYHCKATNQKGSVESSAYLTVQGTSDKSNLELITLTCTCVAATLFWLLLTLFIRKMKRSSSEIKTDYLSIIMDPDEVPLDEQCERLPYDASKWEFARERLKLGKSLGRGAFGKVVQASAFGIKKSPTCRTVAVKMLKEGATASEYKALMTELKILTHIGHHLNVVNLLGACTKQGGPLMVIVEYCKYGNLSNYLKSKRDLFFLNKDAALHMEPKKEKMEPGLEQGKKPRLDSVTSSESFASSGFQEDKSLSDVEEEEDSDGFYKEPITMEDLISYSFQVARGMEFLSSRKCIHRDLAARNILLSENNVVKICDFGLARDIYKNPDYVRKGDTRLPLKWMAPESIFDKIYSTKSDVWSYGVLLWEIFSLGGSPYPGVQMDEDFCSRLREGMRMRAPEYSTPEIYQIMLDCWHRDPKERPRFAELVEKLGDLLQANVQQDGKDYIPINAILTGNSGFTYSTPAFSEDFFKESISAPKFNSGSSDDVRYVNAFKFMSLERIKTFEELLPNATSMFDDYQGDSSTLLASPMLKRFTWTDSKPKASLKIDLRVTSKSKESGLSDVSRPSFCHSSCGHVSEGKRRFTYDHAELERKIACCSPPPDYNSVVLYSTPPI
Sequence of Serine/threonine-protein kinase Chk1 (Homo sapiens) (O14757 whole entry): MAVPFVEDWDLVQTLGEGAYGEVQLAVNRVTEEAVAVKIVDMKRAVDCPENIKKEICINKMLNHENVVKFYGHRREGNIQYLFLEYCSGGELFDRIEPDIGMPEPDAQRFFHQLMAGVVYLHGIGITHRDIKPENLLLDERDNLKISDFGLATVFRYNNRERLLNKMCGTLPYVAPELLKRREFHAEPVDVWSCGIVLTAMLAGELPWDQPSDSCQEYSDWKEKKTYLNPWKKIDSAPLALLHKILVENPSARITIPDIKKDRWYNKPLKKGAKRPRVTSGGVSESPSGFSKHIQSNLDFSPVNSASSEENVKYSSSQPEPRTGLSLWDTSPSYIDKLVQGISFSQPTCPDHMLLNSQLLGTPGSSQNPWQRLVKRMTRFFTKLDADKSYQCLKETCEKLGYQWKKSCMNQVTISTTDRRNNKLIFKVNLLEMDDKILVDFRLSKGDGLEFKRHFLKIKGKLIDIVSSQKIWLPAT
Sequence of Dual specificity mitogen-activated protein kinase kinase 1 (Homo sapiens) (Q02750 whole entry): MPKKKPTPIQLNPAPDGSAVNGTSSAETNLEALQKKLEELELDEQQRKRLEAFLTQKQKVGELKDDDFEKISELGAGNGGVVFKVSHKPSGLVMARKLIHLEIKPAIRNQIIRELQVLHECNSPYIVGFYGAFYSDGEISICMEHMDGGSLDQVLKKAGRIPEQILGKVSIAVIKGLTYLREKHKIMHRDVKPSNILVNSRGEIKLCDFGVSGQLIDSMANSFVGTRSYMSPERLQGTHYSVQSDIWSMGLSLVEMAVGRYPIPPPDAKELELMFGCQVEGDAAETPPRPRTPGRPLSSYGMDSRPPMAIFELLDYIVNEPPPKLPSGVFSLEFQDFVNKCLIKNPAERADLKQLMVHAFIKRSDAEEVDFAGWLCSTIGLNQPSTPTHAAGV
Sequence of Mitogen-activated protein kinase 12 (Homo sapiens) (P53778 whole entry): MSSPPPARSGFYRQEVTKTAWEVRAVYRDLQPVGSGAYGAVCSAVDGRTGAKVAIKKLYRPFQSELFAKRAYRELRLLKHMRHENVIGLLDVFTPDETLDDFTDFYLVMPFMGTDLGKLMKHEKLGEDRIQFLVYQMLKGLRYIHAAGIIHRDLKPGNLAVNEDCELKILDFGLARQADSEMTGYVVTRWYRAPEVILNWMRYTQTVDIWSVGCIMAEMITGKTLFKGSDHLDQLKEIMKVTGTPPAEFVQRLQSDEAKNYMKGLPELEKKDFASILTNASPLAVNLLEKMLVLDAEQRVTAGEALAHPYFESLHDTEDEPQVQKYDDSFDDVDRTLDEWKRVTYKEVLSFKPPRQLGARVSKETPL
Sequence of Epidermal growth factor receptor (Homo sapiens) (P00533 whole entry): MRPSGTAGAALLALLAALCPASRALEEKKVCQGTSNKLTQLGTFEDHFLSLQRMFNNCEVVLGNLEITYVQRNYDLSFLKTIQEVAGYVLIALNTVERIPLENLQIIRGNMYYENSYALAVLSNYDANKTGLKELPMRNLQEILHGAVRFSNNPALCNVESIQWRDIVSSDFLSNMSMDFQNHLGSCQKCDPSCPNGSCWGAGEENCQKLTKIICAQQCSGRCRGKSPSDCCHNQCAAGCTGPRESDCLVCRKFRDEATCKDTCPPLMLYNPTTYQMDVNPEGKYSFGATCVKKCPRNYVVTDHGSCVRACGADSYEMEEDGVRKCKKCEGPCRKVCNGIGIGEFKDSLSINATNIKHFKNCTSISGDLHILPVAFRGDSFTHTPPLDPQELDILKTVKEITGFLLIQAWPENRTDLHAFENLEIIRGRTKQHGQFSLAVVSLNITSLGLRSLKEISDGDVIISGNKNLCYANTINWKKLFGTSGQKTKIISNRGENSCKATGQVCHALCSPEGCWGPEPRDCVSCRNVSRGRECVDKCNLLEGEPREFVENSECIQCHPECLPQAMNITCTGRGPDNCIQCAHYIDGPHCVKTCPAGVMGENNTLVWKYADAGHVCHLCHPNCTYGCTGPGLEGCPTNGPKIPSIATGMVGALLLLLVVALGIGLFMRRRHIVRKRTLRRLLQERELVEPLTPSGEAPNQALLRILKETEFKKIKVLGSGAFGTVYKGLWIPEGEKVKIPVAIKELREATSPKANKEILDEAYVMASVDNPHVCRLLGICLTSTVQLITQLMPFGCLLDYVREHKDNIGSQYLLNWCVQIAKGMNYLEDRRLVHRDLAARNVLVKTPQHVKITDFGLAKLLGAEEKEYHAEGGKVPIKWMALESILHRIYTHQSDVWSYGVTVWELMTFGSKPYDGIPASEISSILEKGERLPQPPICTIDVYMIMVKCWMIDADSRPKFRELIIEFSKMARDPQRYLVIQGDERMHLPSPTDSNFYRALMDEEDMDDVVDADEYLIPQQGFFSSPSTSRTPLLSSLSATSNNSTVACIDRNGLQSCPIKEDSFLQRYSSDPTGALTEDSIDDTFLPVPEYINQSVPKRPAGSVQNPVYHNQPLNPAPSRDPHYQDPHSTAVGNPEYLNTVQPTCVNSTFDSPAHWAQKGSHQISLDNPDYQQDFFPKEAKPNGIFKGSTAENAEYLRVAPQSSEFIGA
Sequence of Ephrin type-A receptor 2 (Homo sapiens) (P29317 whole entry): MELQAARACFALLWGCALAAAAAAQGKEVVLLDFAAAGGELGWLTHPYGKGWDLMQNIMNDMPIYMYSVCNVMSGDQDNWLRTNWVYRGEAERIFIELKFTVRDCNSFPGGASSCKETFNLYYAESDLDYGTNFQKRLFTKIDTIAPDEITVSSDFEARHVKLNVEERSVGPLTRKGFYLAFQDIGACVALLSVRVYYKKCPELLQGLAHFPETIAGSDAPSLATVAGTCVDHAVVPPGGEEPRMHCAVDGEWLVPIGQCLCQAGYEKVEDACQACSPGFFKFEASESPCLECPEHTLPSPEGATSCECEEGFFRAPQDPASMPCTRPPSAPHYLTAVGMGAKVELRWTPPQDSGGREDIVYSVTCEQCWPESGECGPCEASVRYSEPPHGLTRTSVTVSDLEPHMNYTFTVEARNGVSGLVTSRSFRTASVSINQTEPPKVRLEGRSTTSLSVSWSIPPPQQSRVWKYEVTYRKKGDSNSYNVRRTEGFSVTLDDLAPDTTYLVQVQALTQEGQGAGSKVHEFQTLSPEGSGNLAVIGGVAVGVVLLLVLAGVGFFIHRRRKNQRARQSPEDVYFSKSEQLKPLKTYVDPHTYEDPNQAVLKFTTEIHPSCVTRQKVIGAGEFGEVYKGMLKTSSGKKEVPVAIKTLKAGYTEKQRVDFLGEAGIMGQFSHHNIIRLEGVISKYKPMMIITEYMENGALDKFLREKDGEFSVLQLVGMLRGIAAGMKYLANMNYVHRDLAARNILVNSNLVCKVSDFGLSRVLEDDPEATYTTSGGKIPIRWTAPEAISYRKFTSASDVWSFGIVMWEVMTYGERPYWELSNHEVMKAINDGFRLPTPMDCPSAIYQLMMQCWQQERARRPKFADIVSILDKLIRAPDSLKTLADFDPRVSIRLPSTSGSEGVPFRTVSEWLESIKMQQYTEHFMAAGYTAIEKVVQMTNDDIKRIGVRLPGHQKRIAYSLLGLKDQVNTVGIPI

**Q.** Which results are given for `CCCCCCCCCCCCCCC(=O)NC1CCN(C(=O)C2Sc3ccccc3N(CC)C2=O)CC1` (configuration not stated)?
**A.** IC50 (A2780 [1]): 4.6 µM; inhibition [2]: 7%; inhibition [3]: -8%; inhibition [4]: 12%; inhibition [5]: 19%; inhibition [6]: 6.8%; inhibition [7]: 0%; inhibition [8]: 0%; inhibition [9]: 13%; inhibition [10]: 3.2%; Activity (A2780 [11]): Dose-dependent effect; Activity [12]: Non-Toxic
